One data set concerns Parkinson's disease. Nature of the data set: STEADY-PD III post-hoc analysis: isradipine exposure versus need for antiparkinson therapy and levodopa equivalent dose. The data set is classed as in vivo, human.
For data set [1], the system named is dopaminergic neurons in the striatum and substantia nigra. The conditions noted are these: 6-hydroxydopamine mouse model, cited from earlier work.
The next data set addresses Cav1.3 (Homo sapiens, UniProt Q01668). The conditions noted are these: in vitro; read-out: IC50 for inhibition of calcium currents through Cav1.3 (converted); cited from earlier work.
A further data set deals with SNc DA neurons. Conditions: chronic treatment in vivo, cited from earlier work.
Data set [2] in a line: population pharmacokinetic modeling of plasma isradipine in STEADY-PD III by tertile groups. Conditions: IR 5 mg twice daily; for CL/F: steady state; for Cave,ss: based on AUC24.
The mark [3] stands for this setting: Middle CL/F, Middle AUC24 tertile.

As usually defined, the IC50 is the concentration at which inhibition is half-maximal. Broadly, the CL/F is the apparent clearance, not corrected for the fraction that reaches the circulation.

Sequence of Cav1.3 (Q01668 whole entry): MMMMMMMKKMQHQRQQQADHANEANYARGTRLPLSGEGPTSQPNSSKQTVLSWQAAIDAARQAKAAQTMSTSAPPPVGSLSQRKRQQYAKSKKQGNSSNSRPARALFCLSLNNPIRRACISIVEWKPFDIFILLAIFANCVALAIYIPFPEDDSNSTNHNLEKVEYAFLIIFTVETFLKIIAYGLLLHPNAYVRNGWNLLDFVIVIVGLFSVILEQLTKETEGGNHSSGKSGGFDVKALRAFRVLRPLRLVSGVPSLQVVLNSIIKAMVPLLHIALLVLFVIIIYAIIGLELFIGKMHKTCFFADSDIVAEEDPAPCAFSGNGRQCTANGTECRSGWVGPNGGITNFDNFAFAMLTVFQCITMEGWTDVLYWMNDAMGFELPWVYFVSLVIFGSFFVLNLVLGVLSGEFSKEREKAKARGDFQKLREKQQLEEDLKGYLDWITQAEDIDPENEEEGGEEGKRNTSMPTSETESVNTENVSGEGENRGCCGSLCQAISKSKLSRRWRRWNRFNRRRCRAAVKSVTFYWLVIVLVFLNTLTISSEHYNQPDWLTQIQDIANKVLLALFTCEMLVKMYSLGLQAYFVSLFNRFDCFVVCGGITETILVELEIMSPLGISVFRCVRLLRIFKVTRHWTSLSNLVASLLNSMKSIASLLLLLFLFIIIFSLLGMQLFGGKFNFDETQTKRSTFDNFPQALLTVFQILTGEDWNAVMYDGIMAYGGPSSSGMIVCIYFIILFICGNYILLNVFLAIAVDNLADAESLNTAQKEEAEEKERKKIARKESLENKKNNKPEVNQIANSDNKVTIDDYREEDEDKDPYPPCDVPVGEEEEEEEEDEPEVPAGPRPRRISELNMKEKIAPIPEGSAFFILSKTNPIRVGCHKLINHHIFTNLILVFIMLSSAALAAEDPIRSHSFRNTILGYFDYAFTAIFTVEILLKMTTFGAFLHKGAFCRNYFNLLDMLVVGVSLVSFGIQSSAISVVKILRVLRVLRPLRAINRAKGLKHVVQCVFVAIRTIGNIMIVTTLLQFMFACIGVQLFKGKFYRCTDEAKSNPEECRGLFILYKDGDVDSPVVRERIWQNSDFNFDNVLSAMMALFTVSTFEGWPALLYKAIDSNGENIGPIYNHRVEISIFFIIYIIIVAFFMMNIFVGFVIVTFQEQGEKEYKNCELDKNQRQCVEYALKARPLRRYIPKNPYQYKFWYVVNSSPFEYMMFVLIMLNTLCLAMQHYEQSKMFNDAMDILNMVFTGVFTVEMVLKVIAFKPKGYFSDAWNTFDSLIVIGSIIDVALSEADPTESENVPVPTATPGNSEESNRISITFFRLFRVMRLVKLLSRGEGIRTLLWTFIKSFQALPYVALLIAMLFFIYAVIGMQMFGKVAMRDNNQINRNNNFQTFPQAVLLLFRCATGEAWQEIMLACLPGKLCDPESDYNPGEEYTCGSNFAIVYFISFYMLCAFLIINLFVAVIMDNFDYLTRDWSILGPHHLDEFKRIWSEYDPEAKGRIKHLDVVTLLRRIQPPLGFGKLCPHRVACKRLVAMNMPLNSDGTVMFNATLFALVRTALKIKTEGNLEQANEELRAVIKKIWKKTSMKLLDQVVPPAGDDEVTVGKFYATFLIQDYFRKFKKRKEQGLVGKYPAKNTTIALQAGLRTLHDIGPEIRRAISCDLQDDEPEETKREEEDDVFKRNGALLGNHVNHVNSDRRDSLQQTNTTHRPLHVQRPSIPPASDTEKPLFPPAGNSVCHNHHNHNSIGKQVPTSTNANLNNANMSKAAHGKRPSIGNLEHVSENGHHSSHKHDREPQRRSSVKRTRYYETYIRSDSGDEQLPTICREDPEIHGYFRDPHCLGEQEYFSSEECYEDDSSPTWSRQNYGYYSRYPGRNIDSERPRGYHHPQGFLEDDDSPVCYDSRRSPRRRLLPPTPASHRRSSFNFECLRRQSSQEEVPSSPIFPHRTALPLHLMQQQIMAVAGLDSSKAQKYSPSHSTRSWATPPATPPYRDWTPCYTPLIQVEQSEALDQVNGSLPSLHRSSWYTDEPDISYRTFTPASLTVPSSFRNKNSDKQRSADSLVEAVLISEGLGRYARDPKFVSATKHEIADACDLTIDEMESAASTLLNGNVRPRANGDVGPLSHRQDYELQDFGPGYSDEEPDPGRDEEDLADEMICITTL
Sequence of Cav1.3 (P54284 whole entry partner): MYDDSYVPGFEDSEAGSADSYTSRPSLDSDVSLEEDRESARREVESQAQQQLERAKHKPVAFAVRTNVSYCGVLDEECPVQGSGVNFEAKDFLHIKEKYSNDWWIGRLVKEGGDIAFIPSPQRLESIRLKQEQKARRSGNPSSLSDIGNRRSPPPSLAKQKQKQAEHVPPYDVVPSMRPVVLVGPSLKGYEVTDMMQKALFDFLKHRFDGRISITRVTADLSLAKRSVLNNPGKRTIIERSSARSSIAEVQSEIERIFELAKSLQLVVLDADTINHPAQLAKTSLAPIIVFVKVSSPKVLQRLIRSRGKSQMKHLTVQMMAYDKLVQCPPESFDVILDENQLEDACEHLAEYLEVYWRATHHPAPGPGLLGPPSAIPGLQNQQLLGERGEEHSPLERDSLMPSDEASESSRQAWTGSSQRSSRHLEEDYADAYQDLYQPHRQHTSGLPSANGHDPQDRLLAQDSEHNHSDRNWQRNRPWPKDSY
Sequence of Cav1.3 (P54289 25-946 partner limits assumed): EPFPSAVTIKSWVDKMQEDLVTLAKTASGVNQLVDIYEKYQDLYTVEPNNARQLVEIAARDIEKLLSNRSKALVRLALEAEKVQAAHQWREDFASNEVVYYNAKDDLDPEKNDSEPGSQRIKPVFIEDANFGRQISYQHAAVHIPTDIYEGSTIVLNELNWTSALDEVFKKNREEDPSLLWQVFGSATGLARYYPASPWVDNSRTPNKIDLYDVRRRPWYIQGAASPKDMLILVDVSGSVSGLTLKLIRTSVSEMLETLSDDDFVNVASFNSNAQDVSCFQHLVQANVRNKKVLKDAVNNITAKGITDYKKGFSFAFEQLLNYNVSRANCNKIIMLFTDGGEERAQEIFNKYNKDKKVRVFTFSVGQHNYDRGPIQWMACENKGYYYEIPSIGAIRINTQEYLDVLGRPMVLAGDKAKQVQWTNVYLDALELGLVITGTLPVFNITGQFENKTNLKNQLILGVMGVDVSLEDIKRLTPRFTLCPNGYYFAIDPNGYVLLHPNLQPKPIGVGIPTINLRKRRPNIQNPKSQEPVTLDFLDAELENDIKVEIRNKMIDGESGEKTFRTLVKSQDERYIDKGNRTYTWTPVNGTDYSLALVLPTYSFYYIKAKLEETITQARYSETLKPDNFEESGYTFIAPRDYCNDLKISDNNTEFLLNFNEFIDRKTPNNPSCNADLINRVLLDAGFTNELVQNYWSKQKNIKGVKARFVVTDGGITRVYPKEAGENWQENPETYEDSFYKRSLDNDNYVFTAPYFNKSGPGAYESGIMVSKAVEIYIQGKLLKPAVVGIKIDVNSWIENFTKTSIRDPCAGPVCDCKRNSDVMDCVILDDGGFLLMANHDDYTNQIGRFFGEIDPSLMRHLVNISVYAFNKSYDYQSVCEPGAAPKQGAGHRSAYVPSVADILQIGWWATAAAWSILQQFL
Sequence of Cav1.3 (P54289 947-1103 partner limits assumed): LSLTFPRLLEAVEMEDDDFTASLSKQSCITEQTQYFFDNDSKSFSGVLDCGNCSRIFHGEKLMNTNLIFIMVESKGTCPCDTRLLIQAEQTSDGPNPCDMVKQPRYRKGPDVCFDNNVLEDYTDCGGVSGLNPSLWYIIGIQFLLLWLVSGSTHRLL

In the case of `COC(=O)C1=C(C)NC(C)=C(C(=O)OC(C)C)C1c1cccc2nonc12` (centres unmarked) [isradipine], in the data set with Parkinson's disease (highest AUC24 exposure group vs placebo, 95% CI 0.45-0.97), the “HR for time to need therapy” value is recorded as 0.66. Besides, the “decrease in risk of needing antiparkinson treatment” value in the data set on Parkinson's disease (trend per CL/F tertile decrement or AUC24 tertile increment, vs placebo, p for trend=0.02) was found to be 13%. Further, the “HR for time to first initiation of antiparkinson therapy” value in the data set with Parkinson's disease (trend per tertile, vs placebo, 95% CI:0.78-0.98) is 0.87. In data set [1] (systemic administration, plasma concentration), the “plasma concentration required to inhibit neuronal death by 50% (IC50)” value was 5 to 7 ng/mL. Also, the “protection of dopaminergic neurons in the striatum and substantia nigra” value in data set [1] (systemic administration) was “concentration-dependent protection”. The “threshold plasma concentration for protection against neuronal death” value in data set [1] (inflection point in the concentration-response curve) was 1.5 to 2 ng/mL. Besides, on Cav1.3, the half-inhibitory concentration (IC50) is roughly 8.08 nM. In addition, in the data set on SNc DA neurons (SNc DA neurons), the “high basal rate of mitophagy” value was “diminished” and the mitochondrial oxidant stress result is “significantly lowered”. In the data set on SNc DA neurons, the “cytosolic [Ca2+] in SNc DA neurons” value was “sustained reduction” and the “mitochondrial mass in SNc DA neurons” value was “increased”. For the same compound, in data set [2] (Fast CL/F, Low AUC24 tertile), the “Cmin,ss” value was 0.56 ng/mL, the CL/F was 477 L/h and the “Cave,ss” value turned out to be 0.9 ng/mL. In data set [2] (setting [3]), the “Cmin,ss” value is 0.86 ng/mL, the CL/F came to 296 L/h and the “Cave,ss” value was 1.4 ng/mL. Moreover, in data set [2] (Slow CL/F, High AUC24 tertile), the “Cmin,ss” value amounted to 1.40 ng/mL, the CL/F worked out at 195 L/h and the “Cave,ss” value is reported as 2.1 ng/mL.
